#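 Each compound was tested at five concentrations against cells in 96-well plates for 48 hours. GI50 is the concentration that inhibits growth by half. TGI: concentration producing complete growth inhibition.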
# Assays:
# Experiment in all cases: NCI tumour cell line growth inhibition, 48 h
# [1] = tested on: 786-0 renal
# [2] = tested on: A498 renal
# [3] = tested on: A549 NSCLC
# [4] = tested on: ACHN renal
# [5] = tested on: BT-549 breast
# [6] = tested on: CAKI-1 renal
# [7] = tested on: CCRF-CEM leukemia
# [8] = tested on: COLO 205 colon
# [9] = tested on: DU-145 prostate
# [10] = tested on: HCC-2998 colon
# [11] = tested on: HCT-116 colon
# [12] = tested on: HCT-15 colon
# [13] = tested on: HL-60(TB) leukemia
# [14] = tested on: HOP-62 NSCLC
# [15] = tested on: HOP-92 NSCLC
# [16] = tested on: HS 578T breast
# [17] = tested on: HT29 colon
# [18] = tested on: IGROV1 ovarian
# [19] = tested on: K-562 leukemia
# [20] = tested on: KM12 colon
# [21] = tested on: LOX IMVI melanoma
# [22] = tested on: M14 melanoma
# [23] = tested on: MALME-3M melanoma
# [24] = tested on: MCF7 breast
# [25] = tested on: MDA-MB-231 breast
# [26] = tested on: MDA-MB-435
# [27] = tested on: MOLT-4 leukemia
# [28] = tested on: NCI-H226 lung
smiles,measurement,setting,value
CCN(Cc1ccncc1)c1ccc(CO)c(Cl)c1,GI50,[1],> 57 µM
same,TGI,[1],> 100 µM
same,GI50,[2],0.0525 µM
same,TGI,[2],0.203 µM
same,GI50,[3],8.48 µM
same,TGI,[3],> 100 µM
same,GI50,[4],> 100 µM
same,TGI,[4],> 100 µM
same,GI50,[5],> 100 µM
same,TGI,[5],> 100 µM
same,GI50,[6],61.6 µM
same,TGI,[6],> 100 µM
same,GI50,[7],> 100 µM
same,TGI,[7],> 100 µM
same,GI50,[8],1.77 µM
same,TGI,[8],6.34 µM
same,GI50,[9],> 100 µM
same,TGI,[9],> 100 µM
same,GI50,[10],22 µM
same,TGI,[10],> 100 µM
same,GI50,[11],0.352 µM
same,TGI,[11],> 100 µM
same,GI50,[12],> 100 µM
same,TGI,[12],> 100 µM
same,GI50,[13],> 32 µM
same,TGI,[13],> 100 µM
same,GI50,[14],5.03 µM
same,TGI,[14],> 100 µM
same,GI50,[15],2.69 µM
same,TGI,[15],> 74.1 µM
same,GI50,[16],> 100 µM
same,TGI,[16],> 100 µM
same,GI50,[17],4.07 µM
same,TGI,[17],> 100 µM
same,GI50,[18],0.372 µM
same,TGI,[18],2.48 µM
same,GI50,[19],5.62 µM
same,TGI,[19],> 100 µM
same,GI50,[20],> 100 µM
same,TGI,[20],> 100 µM
same,GI50,[21],> 100 µM
same,TGI,[21],> 100 µM
same,GI50,[22],> 100 µM
same,TGI,[22],> 100 µM
same,GI50,[23],> 100 µM
same,TGI,[23],> 100 µM
same,GI50,[24],0.589 µM
same,TGI,[24],> 100 µM
same,GI50,[25],> 100 µM
same,TGI,[25],> 100 µM
same,GI50,[26],> 100 µM
same,TGI,[26],> 100 µM
same,GI50,[27],> 100 µM
same,TGI,[27],> 100 µM
same,GI50,[28],0.127 µM
same,TGI,[28],0.32 µM
